Measurements from PubChem BioAssay (NCI).
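All cell lines were grown in 96-well plates and treated with compound for 48 hours. Abbreviation: GI50, concentration required for 50% inhibition of growth. TGI is the concentration that stops growth completely.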

How the values were obtained:
Assay in all cases: DTP human tumour cell line panel, 48 h
U251 CNS = tested on: U251 CNS
UACC-62 melanoma = tested on: UACC-62 melanoma
DU-145 prostate = tested on: DU-145 prostate
LOX IMVI melanoma = tested on: LOX IMVI melanoma
SK-MEL-5 melanoma = tested on: SK-MEL-5 melanoma
K-562 leukemia = tested on: K-562 leukemia
HOP-62 NSCLC = tested on: HOP-62 NSCLC
SF-539 CNS = tested on: SF-539 CNS
PC-3 prostate = tested on: PC-3 prostate
HS 578T breast = tested on: HS 578T breast
SNB-75 CNS = tested on: SNB-75 CNS
NCI-H226 lung = tested on: NCI-H226 lung
COLO 205 colon = tested on: COLO 205 colon
NCI-H460 lung = tested on: NCI-H460 lung
OVCAR-3 ovarian = tested on: OVCAR-3 ovarian
SW-620 colon = tested on: SW-620 colon
HT29 colon = tested on: HT29 colon
NCI-H23 lung = tested on: NCI-H23 lung
BT-549 breast = tested on: BT-549 breast
MDA-MB-435 = tested on: MDA-MB-435
A549 NSCLC = tested on: A549 NSCLC
HOP-92 NSCLC = tested on: HOP-92 NSCLC
T-47D breast = tested on: T-47D breast
OVCAR-8 ovarian = tested on: OVCAR-8 ovarian
TK-10 renal = tested on: TK-10 renal
SR leukemia = tested on: SR leukemia
RXF 393 renal = tested on: RXF 393 renal
MDA-MB-231 breast = tested on: MDA-MB-231 breast
SF-268 CNS = tested on: SF-268 CNS
ACHN renal = tested on: ACHN renal
UACC-257 melanoma = tested on: UACC-257 melanoma
HL-60(TB) leukemia = tested on: HL-60(TB) leukemia
SN12C renal = tested on: SN12C renal
MOLT-4 leukemia = tested on: MOLT-4 leukemia
EKVX NSCLC = tested on: EKVX NSCLC
786-0 renal = tested on: 786-0 renal
HCT-116 colon = tested on: HCT-116 colon
A498 renal = tested on: A498 renal
HCT-15 colon = tested on: HCT-15 colon
HCC-2998 colon = tested on: HCC-2998 colon
OVCAR-4 ovarian = tested on: OVCAR-4 ovarian
SK-MEL-2 melanoma = tested on: SK-MEL-2 melanoma
KM12 colon = tested on: KM12 colon
OVCAR-5 ovarian = tested on: OVCAR-5 ovarian
UO-31 renal = tested on: UO-31 renal
IGROV1 ovarian = tested on: IGROV1 ovarian
CCRF-CEM leukemia = tested on: CCRF-CEM leukemia
SK-MEL-28 melanoma = tested on: SK-MEL-28 melanoma
M14 melanoma = tested on: M14 melanoma
SNB-19 CNS = tested on: SNB-19 CNS
MCF7 breast = tested on: MCF7 breast
CAKI-1 renal = tested on: CAKI-1 renal
SK-OV-3 ovarian = tested on: SK-OV-3 ovarian
NCI/ADR-RES ovarian = tested on: NCI/ADR-RES ovarian
SF-295 CNS = tested on: SF-295 CNS
RPMI-8226 leukemia = tested on: RPMI-8226 leukemia
NCI-H522 lung = tested on: NCI-H522 lung

## COc1cc(-c2nn(-c3ccc(NC(=O)Nc4ccc(Cl)c(Cl)c4)cc3)cc2-c2ccncc2)ccc1Cl
U251 CNS
  GI50: 2.84 µM
  TGI: 15.1 µM
UACC-62 melanoma
  GI50: 3.35 µM
  TGI: 13.3 µM
DU-145 prostate
  GI50: 4.33 µM
  TGI: 69.7 µM
LOX IMVI melanoma
  GI50: 1.98 µM
  TGI: 4.75 µM
SK-MEL-5 melanoma
  GI50: 2.48 µM
  TGI: 8.29 µM
K-562 leukemia
  GI50: 3.51 µM
  TGI: > 100 µM
HOP-62 NSCLC
  GI50: 3.79 µM
  TGI: 22.3 µM
SF-539 CNS
  GI50: 2.89 µM
  TGI: 33.6 µM
PC-3 prostate
  GI50: 2.89 µM
  TGI: > 100 µM
HS 578T breast
  GI50: 3.22 µM
  TGI: 11.9 µM
SNB-75 CNS
  GI50: 2.13 µM
  TGI: 9.75 µM
NCI-H226 lung
  GI50: 4.19 µM
  TGI: 69.1 µM
COLO 205 colon
  GI50: 1.97 µM
  TGI: 4.2 µM
NCI-H460 lung
  GI50: 2.42 µM
  TGI: 5.64 µM
OVCAR-3 ovarian
  GI50: 3.02 µM
  TGI: 8.63 µM
SW-620 colon
  GI50: 4.3 µM
  TGI: 19.4 µM
HT29 colon
  GI50: 3.52 µM
  TGI: 17.1 µM
NCI-H23 lung
  GI50: 3.26 µM
  TGI: 32.3 µM
BT-549 breast
  GI50: 3.35 µM
  TGI: 11.2 µM
MDA-MB-435
  GI50: 2.87 µM
  TGI: 8.8 µM
A549 NSCLC
  GI50: 3.58 µM
  TGI: > 100 µM
HOP-92 NSCLC
  GI50: 2.35 µM
  TGI: 11.9 µM
T-47D breast
  GI50: 3.02 µM
  TGI: 54.6 µM
OVCAR-8 ovarian
  GI50: 3.49 µM
  TGI: > 100 µM
TK-10 renal
  GI50: 6.5 µM
  TGI: > 100 µM
SR leukemia
  GI50: 3.77 µM
  TGI: > 100 µM
RXF 393 renal
  GI50: 2.16 µM
  TGI: 7.49 µM
MDA-MB-231 breast
  GI50: 2.62 µM
  TGI: 7.7 µM
SF-268 CNS
  GI50: 4.57 µM
  TGI: > 100 µM
ACHN renal
  GI50: 3.35 µM
  TGI: > 100 µM
UACC-257 melanoma
  GI50: 3.17 µM
  TGI: 23.5 µM
HL-60(TB) leukemia
  GI50: 3.55 µM
  TGI: > 100 µM
SN12C renal
  GI50: 3.96 µM
  TGI: > 100 µM
MOLT-4 leukemia
  GI50: 3.27 µM
  TGI: > 100 µM
EKVX NSCLC
  GI50: 2.61 µM
  TGI: 15.3 µM
786-0 renal
  GI50: 2.4 µM
  TGI: 5.43 µM
HCT-116 colon
  GI50: 3.08 µM
  TGI: 11 µM
A498 renal
  GI50: 2 µM
  TGI: 8.27 µM
HCT-15 colon
  GI50: 2.88 µM
  TGI: 14.1 µM
HCC-2998 colon
  GI50: 2.62 µM
  TGI: 7.65 µM
OVCAR-4 ovarian
  GI50: 4.41 µM
  TGI: > 100 µM
SK-MEL-2 melanoma
  GI50: 3.44 µM
  TGI: 39.7 µM
KM12 colon
  GI50: 2.62 µM
  TGI: 7.41 µM
OVCAR-5 ovarian
  GI50: 2.54 µM
  TGI: > 100 µM
UO-31 renal
  GI50: 2.74 µM
  TGI: 11.3 µM
IGROV1 ovarian
  GI50: 4.88 µM
  TGI: > 100 µM
CCRF-CEM leukemia
  GI50: 3.16 µM
  TGI: > 100 µM
SK-MEL-28 melanoma
  GI50: 3.94 µM
  TGI: 17.9 µM
M14 melanoma
  GI50: 2.56 µM
  TGI: 6.87 µM
SNB-19 CNS
  GI50: 5.29 µM
  TGI: > 100 µM
MCF7 breast
  GI50: 3.35 µM
  TGI: > 100 µM
CAKI-1 renal
  GI50: 2.59 µM
  TGI: 7.68 µM
SK-OV-3 ovarian
  GI50: 3.96 µM
  TGI: > 100 µM
NCI/ADR-RES ovarian
  GI50: 3.24 µM
  TGI: > 100 µM
SF-295 CNS
  GI50: 1.82 µM
  TGI: 4.4 µM

## COc1cc(-c2n/c(=C\c3c(O)[nH]c4ccc(Cl)cc34)cc3c2=Nc2ccccc2-3)cc(OC)c1OC
UACC-62 melanoma
  GI50: 1.8 µM
  TGI: 3.42 µM
DU-145 prostate
  GI50: 0.655 µM
  TGI: 2.59 µM
LOX IMVI melanoma
  GI50: 0.501 µM
  TGI: 1.89 µM
SK-MEL-5 melanoma
  GI50: 1.83 µM
  TGI: 5.63 µM
K-562 leukemia
  GI50: 0.728 µM
  TGI: 10.1 µM
HOP-62 NSCLC
  GI50: 0.383 µM
  TGI: 0.783 µM
SF-539 CNS
  GI50: 2.32 µM
  TGI: 4.91 µM
PC-3 prostate
  GI50: 1.82 µM
  TGI: 5.92 µM
HS 578T breast
  GI50: 2.29 µM
  TGI: 8.31 µM
SNB-75 CNS
  GI50: 1.72 µM
  TGI: 4.84 µM
NCI-H226 lung
  GI50: 3 µM
  TGI: 12 µM
RPMI-8226 leukemia
  GI50: 2.68 µM
  TGI: 19.7 µM
COLO 205 colon
  GI50: 1.35 µM
  TGI: 3.81 µM
OVCAR-3 ovarian
  GI50: 0.417 µM
  TGI: 1.53 µM
SW-620 colon
  GI50: 0.366 µM
  TGI: 1.6 µM
HT29 colon
  GI50: 1.04 µM
  TGI: 2.96 µM
NCI-H23 lung
  GI50: 1.05 µM
  TGI: 3.85 µM
BT-549 breast
  GI50: 2.43 µM
  TGI: 7.45 µM
NCI-H522 lung
  GI50: 1.79 µM
  TGI: 4.09 µM
MDA-MB-435
  GI50: 2.08 µM
  TGI: 5.15 µM
HOP-92 NSCLC
  GI50: 1.32 µM
  TGI: 3.32 µM
T-47D breast
  GI50: 1.28 µM
  TGI: 3.21 µM
TK-10 renal
  GI50: 1.5 µM
  TGI: 3.2 µM
SR leukemia
  GI50: 0.445 µM
  TGI: 4.8 µM
RXF 393 renal
  GI50: 1.63 µM
  TGI: 3.33 µM
MDA-MB-231 breast
  GI50: 1.47 µM
  TGI: 3.12 µM
SF-268 CNS
  GI50: 1.6 µM
  TGI: 3.95 µM
ACHN renal
  GI50: 0.449 µM
  TGI: 1.65 µM
HL-60(TB) leukemia
  GI50: 10.7 µM
  TGI: 38.1 µM
SN12C renal
  GI50: 0.754 µM
  TGI: 2.36 µM
MOLT-4 leukemia
  GI50: 0.679 µM
  TGI: 3.64 µM
EKVX NSCLC
  GI50: 3.59 µM
  TGI: 18.7 µM
HCT-116 colon
  GI50: 0.232 µM
  TGI: 0.595 µM
A498 renal
  GI50: 1.76 µM
  TGI: 4.71 µM
HCT-15 colon
  GI50: 1.56 µM
  TGI: 8.44 µM
HCC-2998 colon
  GI50: 2.98 µM
  TGI: 11 µM
OVCAR-4 ovarian
  GI50: 0.423 µM
  TGI: 1.78 µM
SK-MEL-2 melanoma
  GI50: 2.21 µM
  TGI: 4.9 µM
KM12 colon
  GI50: 1.72 µM
  TGI: 5.61 µM
OVCAR-5 ovarian
  GI50: 5.15 µM
  TGI: 16.9 µM
UO-31 renal
  GI50: 1.29 µM
  TGI: 2.72 µM
IGROV1 ovarian
  GI50: 0.685 µM
  TGI: 4.09 µM
CCRF-CEM leukemia
  GI50: 0.849 µM
  TGI: 37.3 µM
SK-MEL-28 melanoma
  GI50: 2.04 µM
  TGI: 4.41 µM
M14 melanoma
  GI50: 1.43 µM
  TGI: 3.02 µM
SNB-19 CNS
  GI50: 1.18 µM
  TGI: 3.84 µM
MCF7 breast
  GI50: 0.316 µM
  TGI: 1.38 µM
CAKI-1 renal
  GI50: 1.97 µM
  TGI: 6.72 µM
SK-OV-3 ovarian
  GI50: 2.16 µM
  TGI: 4.79 µM
NCI/ADR-RES ovarian
  GI50: 2.01 µM
  TGI: 7.55 µM
SF-295 CNS
  GI50: 3.31 µM
  TGI: 10.2 µM
